According to ChEMBL document CHEMBL3217667, “Extended side chain analogues of 8-aminoquinolines: Synthesis and evaluation of antiprotozoal, antimicrobial, -hematin inhibition, and cytotoxic activities” (Medchemcomm, 2011):
≈ marks a conversion by molar mass, not a printed value. Calls of active or inactive are those of the source. The calls are words filed in the database; no cut-off is given here.

How the values were obtained:
Plasmodium falciparum [1] = experiment: Antimalarial activity against chloroquine-sensitive Plasmodium falciparum D6 by lactate dehydrogenase assay; format: functional, organism-based; conditions: Plasmodium falciparum, D6; read-out: IC50
Staphylococcus aureus [2] = experiment: Antibacterial activity against methicillin-resistant Staphylococcus aureus; format: functional, organism-based
Pseudomonas aeruginosa = experiment: Antibacterial activity against Pseudomonas aeruginosa; format: functional, organism-based
Plasmodium berghei [3] = experiment: Antimalarial activity against Plasmodium berghei infected in mouse assessed as reduction in parasitemia at 50 mg/kg/day, po for 4 days measured up to day 60 relative to control; format: functional; design: scale not given: the % may be the effect or the level left
Plasmodium berghei [4] = experiment: Antimalarial activity against Plasmodium berghei infected in mouse assessed as reduction in parasitemia at 10 mg/kg/day, po for 4 days measured up to day 7; format: functional, organism-based
Aspergillus fumigatus = experiment: Antifungal activity against Aspergillus fumigatus by broth microdilution assay; format: functional, organism-based
Vero = experiment: Cytotoxicity against African green monkey Vero cells by neutral red uptake assay; format: cell-based; conditions: Chlorocebus sabaeus
SK-OV-3 = experiment: Cytotoxicity against human SKOV3 cells by neutral red uptake assay; format: cell-based
[5] = test system: Mycobacterium intracellulare; experiment: Antibacterial activity against Mycobacterium intracellulare up to 20 ug/ml; format: functional, organism-based
Plasmodium berghei [6] = experiment: Antimalarial activity against Plasmodium berghei infected in mouse assessed as reduction in parasitemia at 100 mg/kg/day, po for 4 days measured up to day 60 relative to control; format: functional; design: scale not given: the % may be the effect or the level left
Plasmodium falciparum [7] = experiment: Antimalarial activity against chloroquine-resistant Plasmodium falciparum W2 by lactate dehydrogenase assay; format: functional, organism-based; conditions: Plasmodium falciparum, W2; read-out: IC50
Candida albicans = experiment: Antifungal activity against Candida albicans by broth microdilution assay; format: functional, organism-based
LLC-PK1 = experiment: Cytotoxicity against pig LLC-PK1 cells by neutral red uptake assay; format: cell-based; conditions: Sus scrofa
Leishmania donovani = experiment: Antileishmanial activity against Leishmania donovani promastigotes by Alamar Blue assay; format: functional, organism-based
Nakaseomyces glabratus = experiment: Antifungal activity against Candida glabrata by broth microdilution assay; format: functional, organism-based
Escherichia coli = experiment: Antibacterial activity against Escherichia coli; format: functional, organism-based
Pichia kudriavzevii = experiment: Antifungal activity against Candida krusei by broth microdilution assay; format: functional, organism-based
Plasmodium berghei [8] = experiment: Antimalarial activity against Plasmodium berghei infected in mouse assessed as reduction in parasitemia at 25 mg/kg/day, po for 4 days measured up to day 60 relative to control; format: functional; design: scale not given: the % may be the effect or the level left
SK-MEL = experiment: Cytotoxicity against human SK-MEL cells by neutral red uptake assay; format: cell-based
[9] = Inhibition of beta-hematin formation after 16 hrs; format: physicochemical
[10] = Selectivity index, ratio of IC50 for African green monkey Vero cells to IC50 for chloroquine-resistant Plasmodium falciparum W2; format: toxicity, cell-based; conditions: read-out: Ratio IC50
BT-549 = experiment: Cytotoxicity against human BT549 cells by neutral red uptake assay; format: cell-based
Plasmodium berghei [11] = experiment: Antimalarial activity against Plasmodium berghei infected in mouse assessed as reduction in parasitemia at 100 mg/kg/day, po for 4 days measured up to day 14; format: functional; design: scale not given: the % may be the effect or the level left
[12] = Selectivity index, ratio of IC50 for African green monkey Vero cells to IC50 for chloroquine-sensitive Plasmodium falciparum D6; format: toxicity, cell-based; conditions: read-out: Ratio IC50
KB = experiment: Cytotoxicity against human KB cells by neutral red uptake assay; format: cell-based
Cryptococcus neoformans = experiment: Antifungal activity against Cryptococcus neoformans by broth microdilution assay; format: functional, organism-based
Staphylococcus aureus [13] = experiment: Antibacterial activity against methicillin-resistant Staphylococcus aureus up to 20 ug/ml; format: functional, organism-based
[14] = test system: Mycobacterium intracellulare; experiment: Antibacterial activity against Mycobacterium intracellulare; format: functional, organism-based
Staphylococcus aureus [15] = experiment: Antibacterial activity against Staphylococcus aureus; format: functional, organism-based

Row | Compound | IC50 (Plasmodium falciparum [1]) [µg/mL] | IC50 (Staphylococcus aureus [2]) [µg/mL] | Activity (Pseudomonas aeruginosa) | Activity (Aspergillus fumigatus) | IC50 (Vero) [µg/mL] | IC50 (SK-OV-3) [µg/mL] | Activity [5] | IC50 (Plasmodium falciparum [7]) [µg/mL] | Activity (Candida albicans) | IC50 (LLC-PK1) [µg/mL] | IC50 (Leishmania donovani) [µg/mL] | IC90 (Leishmania donovani) [µg/mL] | Activity (Nakaseomyces glabratus) | Activity (Escherichia coli) | Activity (Pichia kudriavzevii) | IC50 (SK-MEL) [µg/mL] | IC50 [9] [µM] | selectivity ratio [10] | IC50 (BT-549) [µg/mL] | MFC (Cryptococcus neoformans) [µg/mL] | also measured
1 | COc1cc(NC(C)CCCNC(C)CCCN)c2nc(C(C)(C)C)ccc2c1.Cl (stereo not given) | 0.19 | 6.5 | inactive | inactive | > 23.8 | > 23.8 | inactive | 0.12 | inactive | > 23.8 | 2.8 | 7.2 | inactive | inactive | inactive | > 23.8 | 7.5 | > 198 | > 23.8 | 20 | MBC (Staphylococcus aureus [2]): 20 µg/mL; MIC (Staphylococcus aureus [2]): 10 µg/mL; Activity (Plasmodium berghei [3]): 100%; Activity (Plasmodium berghei [4]): Active; Activity (Plasmodium berghei [6]): 100%; Activity (Plasmodium berghei [8]): 100%; Activity (Plasmodium berghei [11]): 100%; selectivity ratio [12]: > 125; IC50 (KB): > 23.8 µg/mL; IC50 (Cryptococcus neoformans): 10 µg/mL; MIC (Cryptococcus neoformans): 20 µg/mL
2 | CCCCOc1c(OC)cc(NC(C)CCCNC(C)CCCNC(C)CCCN)c2nccc(CC)c12.Cl (stereo not given) | 0.54 | > 20 | inactive | inactive | > 23.8 | > 23.8 | inactive | 0.58 | inactive | > 23.8 | 14 | 32 | inactive | inactive | inactive | > 23.8 | 19.7 | > 41 | > 23.8 | 20 | Activity (Staphylococcus aureus [13]): inactive; IC50 [14]: > 20 µg/mL; IC50 (Staphylococcus aureus [15]): 12 µg/mL; MBC (Staphylococcus aureus [15]): 20 µg/mL; MIC (Staphylococcus aureus [15]): 20 µg/mL; Activity (Plasmodium berghei [11]): inactive; selectivity ratio [12]: > 44; IC50 (KB): > 23.8 µg/mL; IC50 (Cryptococcus neoformans): 12.1 µg/mL; MIC (Cryptococcus neoformans): 20 µg/mL
3 | CCCCCOc1c(OC)cc(NC(C)CCCNC(C)CCCNC(C)CCCN)c2nccc(CC)c12.Cl (stereo not given) | 0.57 | 9.5 | inactive | inactive | > 23.8 | > 23.8 | inactive | 0.48 | inactive | > 23.8 | 3.5 | 7 | inactive | inactive | inactive | > 23.8 | 20.8 | > 49.5 | > 23.8 | 10 | MBC (Staphylococcus aureus [2]): 20 µg/mL; MIC (Staphylococcus aureus [2]): 20 µg/mL; IC50 [14]: 16.6 µg/mL; MIC [14]: 20 µg/mL; IC50 (Staphylococcus aureus [15]): 8.6 µg/mL; MBC (Staphylococcus aureus [15]): 20 µg/mL; MIC (Staphylococcus aureus [15]): 20 µg/mL; Activity (Plasmodium berghei [11]): inactive; selectivity ratio [12]: > 41.7; IC50 (KB): > 23.8 µg/mL; IC50 (Cryptococcus neoformans): 5.5 µg/mL; MIC (Cryptococcus neoformans): 10 µg/mL
4 | CCCCCOc1c(OC)cc(NC(C)CCCNC(C)CCCNC(C)CCCNC(C)CCCN)c2nccc(CC)c12.Cl (stereo not given) | 0.44 | 11 | inactive | inactive | > 23.8 | > 23.8 | inactive | 0.42 | inactive | > 23.8 | 3.1 | 7 | inactive | inactive | inactive | > 23.8 | 11.2 | > 56.6 | > 23.8 | 10 | MBC (Staphylococcus aureus [2]): 20 µg/mL; MIC (Staphylococcus aureus [2]): 20 µg/mL; IC50 [14]: 17.8 µg/mL; MIC [14]: 20 µg/mL; IC50 (Staphylococcus aureus [15]): 9.8 µg/mL; MBC (Staphylococcus aureus [15]): 20 µg/mL; MIC (Staphylococcus aureus [15]): 20 µg/mL; Activity (Plasmodium berghei [11]): inactive; selectivity ratio [12]: > 54; IC50 (KB): > 23.8 µg/mL; IC50 (Cryptococcus neoformans): 5.6 µg/mL; MIC (Cryptococcus neoformans): 10 µg/mL
5 | CCCCOc1c(OC)cc(NC(C)CCCNC(C)CCCNC(C)CCCNC(C)CCCN)c2nccc(CC)c12.Cl (stereo not given) | 0.49 | 13.2 | inactive | inactive | > 23.8 | > 23.8 | inactive | 0.35 | inactive | > 23.8 | 3.2 | 7 | inactive | inactive | inactive | > 23.8 | 10.7 | > 68 | > 23.8 | 20 | MIC (Staphylococcus aureus [2]): 20 µg/mL; Activity (Staphylococcus aureus [13]): inactive; IC50 [14]: 15 µg/mL; IC50 (Staphylococcus aureus [15]): 13.6 µg/mL; MBC (Staphylococcus aureus [15]): 20 µg/mL; MIC (Staphylococcus aureus [15]): 20 µg/mL; Activity (Plasmodium berghei [11]): inactive; selectivity ratio [12]: > 48.5; IC50 (KB): > 23.8 µg/mL; IC50 (Cryptococcus neoformans): 8 µg/mL; MIC (Cryptococcus neoformans): 20 µg/mL
6 | C[C@@H]1[C@H](O)[C@@H](C)/C=C/C=C/C=C/C=C/C=C/C=C/C=C/[C@H](O[C@@H]2O[C@H](C)[C@@H](O)[C@H](N)[C@@H]2O)C[C@@H]2O[C@](O)(C[C@@H](O)C[C@@H](O)[C@H](O)CC[C@@H](O)C[C@@H](O)CC(=O)O[C@H]1C)C[C@H](O)[C@H]2C(=O)O [AMPHOTERICIN B] | – | – | – | – | – | – | – | – | – | – | – | 0.35 (≈ 0.379 µM) | – | – | – | – | – | – | – | 1.5 (≈ 1.62 µM) | MFC (Nakaseomyces glabratus): 0.625 µg/mL (≈ 0.676 µM); MIC (Nakaseomyces glabratus): 0.31 µg/mL (≈ 0.335 µM)
